Drawing on patent publication US12336981B2, “Compounds and compositions for the inhibition of NAMPT” (Valo Health, Inc., priority 2010, dated 2025), this text covers IC50 for 33 molecules.

Where two headings read alike, the source gives them in different places.

The target of assay [1] is T1, NAMPT (Homo sapiens, UniProt P43490).
T1 construct: His tag; host or cells: E. coli
The assay can be described thus: Biochemical inhibition assay: NAMPT enzymatic reaction, NMN quantified by mass spectrometry. The conditions noted are these: read-out: Biochem IC50. The method in brief:
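Inhibition of E. coli-expressed His-tagged human NAMPT, measured as NMN formation by mass spectrometry after a 30 min room-temperature reaction containing 1 μM NAM, 100 μM PRPP and 2.5 mM ATP.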

Assay [2] relates to A2780 cells. Briefly: In-vitro cell proliferation assay (SRB), A2780 cells. The conditions noted are these: Homo sapiens, A2780, 72 h, A2780 cells, 72 hours, read-out: A2780 IC50. It counts as cell-based. The method, boiled down:
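Proliferation is assessed by sulforhodamine B staining following a 72-hour incubation with compound dilutions containing 0.1% DMSO.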

T1 sequence (P43490 whole entry): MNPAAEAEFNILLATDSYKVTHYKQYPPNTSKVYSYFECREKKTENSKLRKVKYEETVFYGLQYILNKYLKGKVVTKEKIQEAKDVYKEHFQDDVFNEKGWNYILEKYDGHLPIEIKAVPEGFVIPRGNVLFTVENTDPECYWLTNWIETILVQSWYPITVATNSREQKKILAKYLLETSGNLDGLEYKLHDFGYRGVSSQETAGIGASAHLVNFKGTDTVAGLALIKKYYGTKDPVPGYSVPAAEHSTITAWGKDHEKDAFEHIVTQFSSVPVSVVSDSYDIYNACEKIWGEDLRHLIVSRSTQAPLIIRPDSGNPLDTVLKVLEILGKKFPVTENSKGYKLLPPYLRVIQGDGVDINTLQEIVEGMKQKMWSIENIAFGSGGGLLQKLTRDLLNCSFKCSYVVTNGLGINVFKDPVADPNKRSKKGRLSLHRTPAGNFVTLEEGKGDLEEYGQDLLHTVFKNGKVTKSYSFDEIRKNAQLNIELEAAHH

Broadly, the IC50 is the midpoint of a concentration-inhibition curve. In the case of `CC(NC(=O)c1cc2cnccc2[nH]1)c1ccc(S(=O)(=O)N2CCCCC2)cc1` (stereo not drawn) [N-{1-[4-(piperidine-1-sulfonyl)phenyl]ethyl}-1H-pyrrolo[3,2-c]pyridine-2-carboxamide], the IC50 in assay [1] (NAMPT enzymatic reaction) was found to be 20 nM; in assay [2] (SRB assay) it was 7 nM.

Take `O=C(NCCc1ccc(S(=O)(=O)c2ccccc2)cc1)c1cc2cnccc2[nH]1` [N-{2-[4-(benzenesulfonyl)phenyl]ethyl}-1H-pyrrolo[3,2-c]pyridine-2-carboxamide]: the IC50 in assay [1] (NAMPT enzymatic reaction) worked out at 410 nM; in assay [2] (SRB assay), 9100 nM.

In the case of `O=C(NCC1CCN(S(=O)(=O)c2ccccc2)CC1)c1cc2cnccc2[nH]1` [N-{[1-(benzenesulfonyl)piperidin-4-yl]methyl}-1H-pyrrolo[3,2-c]pyridine-2-carboxamide], the IC50 was determined as 15 nM in assay [1] (NAMPT enzymatic reaction) and 9 nM in assay [2] (SRB assay).

`O=C(NCc1cccc(S(=O)(=O)c2ccccc2)c1)c1cc2cnccc2[nH]1` [N-{[3-(benzenesulfonyl)phenyl]methyl}-1H-pyrrolo[3,2-c]pyridine-2-carboxamide]: the IC50 in assay [1] (NAMPT enzymatic reaction) and in assay [2] (SRB assay) was over 30000 nM in each case.

Turning to `O=C(NCc1ccc(S(=O)(=O)c2nccs2)cc1)c1cc2ccncc2o1` [N-{[4-(1,3-thiazole-2-sulfonyl)phenyl]methyl}furo[2,3-c]pyridine-2-carboxamide], the IC50 was found to be 19.8 nM in assay [1] (NAMPT enzymatic assay) and 78.6 nM in assay [2] (SRB).

With `O=C(NCc1ccc(S(=O)(=O)c2nccs2)cc1)c1ccc2nccn2c1` [N-{[4-(1,3-thiazole-2-sulfonyl)phenyl]methyl}imidazo[1,2-a]pyridine-6-carboxamide], the IC50 came to 21 nM in assay [1] (NAMPT enzymatic assay) and 99.4 nM in assay [2] (SRB).

On to `O=C(NCc1ccc(S(=O)(=O)c2nccs2)cc1)c1cc2ccncc2s1` [N-{[4-(1,3-thiazole-2-sulfonyl)phenyl]methyl}thieno[2,3-c]pyridine-2-carboxamide], for which the IC50 in assay [1] (NAMPT enzymatic assay) was found to be 14.4 nM; in assay [2] (SRB) it was 75.1 nM.

Take `Cc1cn(C)c(S(=O)(=O)c2ccc(CNC(=O)c3cc4ccncc4o3)cc2)n1` [N-{[4-(1,4-dimethyl-1H-imidazole-2-sulfonyl)phenyl]methyl}furo[2,3-c]pyridine-2-carboxamide]: the values for the IC50 in assay [1] (NAMPT enzymatic assay) and in assay [2] (SRB) were 60.7 nM and 100 to 1000 nM, respectively.

Regarding `Cc1cn(C)c(S(=O)(=O)c2ccc(CNC(=O)c3ccc4nccn4c3)cc2)n1` [N-{[4-(1,4-dimethyl-1H-imidazole-2-sulfonyl)phenyl]methyl}imidazo[1,2-a]pyridine-6-carboxamide], the IC50 in assay [1] (NAMPT enzymatic assay) is 100 to 1000 nM; in assay [2] (SRB), 95.4 nM.

Consider `Cc1cnc(S(=O)(=O)c2ccc(CNC(=O)c3cc4ccncc4o3)cc2)n1C` [N-{[4-(1,5-dimethyl-1H-imidazole-2-sulfonyl)phenyl]methyl}furo[2,3-c]pyridine-2-carboxamide], for which the IC50 came out at 57.4 nM in assay [1] (NAMPT enzymatic assay) and 65.9 nM in assay [2] (SRB).

Turning to `Cc1cnc(S(=O)(=O)c2ccc(CNC(=O)c3ccc4nccn4c3)cc2)n1C` [N-{[4-(1,5-dimethyl-1H-imidazole-2-sulfonyl)phenyl]methyl}imidazo[1,2-a]pyridine-6-carboxamide], the values for the IC50 in assay [1] (NAMPT enzymatic assay) and in assay [2] (SRB) were 30.9 nM and 73.1 nM, respectively.

As to `Cc1cnc(S(=O)(=O)c2ccc(CNC(=O)c3cnc4nccn4c3)cc2)n1C` [N-{[4-(1,5-dimethyl-1H-imidazole-2-sulfonyl)phenyl]methyl}imidazo[1,2-a]pyrimidine-6-carboxamide], the IC50 in assay [1] (NAMPT enzymatic assay) was 32.9 nM; in assay [2] (SRB), 1000 to 10000 nM.

Turning to `O=C(NCc1ccc(S(=O)(=O)c2cccc3ccsc23)cc1)c1cnc2[nH]ncc2c1` [N-{[4-(1-benzothiophene-7-sulfonyl)phenyl]methyl}-1H-pyrazolo[3,4-b]pyridine-5-carboxamide], the results for the IC50 in assay [1] (NAMPT enzymatic assay) and in assay [2] (SRB) were 9.9 nM and 12.8 nM, respectively.

For the molecule `O=C(NCc1ccc(S(=O)(=O)c2cccc3ccsc23)cc1)c1cc2ccncc2o1` [N-{[4-(1-benzothiophene-7-sulfonyl)phenyl]methyl}furo[2,3-c]pyridine-2-carboxamide], the IC50 is 4.9 nM in assay [1] (NAMPT enzymatic assay) and 13.9 nM in assay [2] (SRB).

For the molecule `O=C(NCc1ccc(S(=O)(=O)c2cccc3ccsc23)cc1)c1cc2ccncc2s1` [N-{[4-(1-benzothiophene-7-sulfonyl)phenyl]methyl}thieno[2,3-c]pyridine-2-carboxamide], the IC50 in assay [1] (NAMPT enzymatic assay) and in assay [2] (SRB) was 1.5 nM throughout.

`Cn1cnc2ccc(S(=O)(=O)c3ccc(CNC(=O)c4cnc5nccn5c4)cc3)cc21` [N-{[4-(1-methyl-1H-1,3-benzodiazole-6-sulfonyl)phenyl]methyl}imidazo[1,2-a]pyrimidine-6-carboxamide]: the half-inhibitory concentration (IC50) in assay [1] (NAMPT enzymatic assay) came out at 4 nM; in assay [2] (SRB) it was 33.8 nM.

As for `Cn1ncc2c(S(=O)(=O)c3ccc(CNC(=O)c4ccc5ncsc5c4)cc3)cccc21` [N-{[4-(1-methyl-1H-indazole-4-sulfonyl)phenyl]methyl}-1,3-benzothiazole-6-carboxamide], the IC50 was 9.8 nM in assay [1] (NAMPT enzymatic assay) and 1000 to 10000 nM in assay [2] (SRB).

In the case of `Cn1ncc2c(S(=O)(=O)c3ccc(CNC(=O)c4cnc5[nH]ncc5c4)cc3)cccc21` [N-{[4-(1-methyl-1H-indazole-4-sulfonyl)phenyl]methyl}-1H-pyrazolo[3,4-b]pyridine-5-carboxamide], the IC50 in assay [1] (NAMPT enzymatic assay) was found to be 20.3 nM; in assay [2] (SRB) it was 6.4 nM.

Regarding `Cn1ncc2c(S(=O)(=O)c3ccc(CNC(=O)c4cc5cnccc5[nH]4)cc3)cccc21` [N-{[4-(1-methyl-1H-indazole-4-sulfonyl)phenyl]methyl}-1H-pyrrolo[3,2-c]pyridine-2-carboxamide], the figures for the IC50 in assay [1] (NAMPT enzymatic assay) and in assay [2] (SRB) were 3.1 nM and 1.5 nM, respectively.

On to `Cn1ncc2c(S(=O)(=O)c3ccc(CNC(=O)c4cc5ccncc5o4)cc3)cccc21` [N-{[4-(1-methyl-1H-indazole-4-sulfonyl)phenyl]methyl}furo[2,3-c]pyridine-2-carboxamide], for which the IC50 is 9.2 nM in assay [1] (NAMPT enzymatic assay) and 3.6 nM in assay [2] (SRB).

Take `Cn1ncc2c(S(=O)(=O)c3ccc(CNC(=O)c4ccc5nccn5c4)cc3)cccc21` [N-{[4-(1-methyl-1H-indazole-4-sulfonyl)phenyl]methyl}imidazo[1,2-a]pyridine-6-carboxamide]: the IC50 in assay [1] (NAMPT enzymatic assay) was 12.5 nM; in assay [2] (SRB), 3 nM.

Regarding `Cn1ncc2c(S(=O)(=O)c3ccc(CNC(=O)c4cnc5nccn5c4)cc3)cccc21` [N-{[4-(1-methyl-1H-indazole-4-sulfonyl)phenyl]methyl}imidazo[1,2-a]pyrimidine-6-carboxamide], the half-maximal inhibitory concentration (IC50) in assay [1] (NAMPT enzymatic assay) was 4.2 nM; in assay [2] (SRB), 10.3 nM.

Consider `Cn1ncc2c(S(=O)(=O)c3ccc(CNC(=O)c4cc5ccncc5s4)cc3)cccc21` [N-{[4-(1-methyl-1H-indazole-4-sulfonyl)phenyl]methyl}thieno[2,3-c]pyridine-2-carboxamide], for which the IC50 was found to be 1.1 nM in assay [1] (NAMPT enzymatic assay) and 0.8 nM in assay [2] (SRB).

On to `Cn1ncc2cc(S(=O)(=O)c3ccc(CNC(=O)c4cnc5[nH]ncc5c4)cc3)ccc21` [N-{[4-(1-methyl-1H-indazole-5-sulfonyl)phenyl]methyl}-1H-pyrazolo[3,4-b]pyridine-5-carboxamide], for which the half-maximal inhibitory concentration (IC50) in assay [1] (NAMPT enzymatic assay) amounted to 5.4 nM; in assay [2] (SRB) it was 2.73 nM.

Consider `Cn1ncc2cc(S(=O)(=O)c3ccc(CNC(=O)c4cc5cnccc5[nH]4)cc3)ccc21` [N-{[4-(1-methyl-1H-indazole-5-sulfonyl)phenyl]methyl}-1H-pyrrolo[3,2-c]pyridine-2-carboxamide], for which the results for the IC50 in assay [1] (NAMPT enzymatic assay) and in assay [2] (SRB) were 5.7 nM and 3.1 nM, respectively.

`Cn1ncc2cc(S(=O)(=O)c3ccc(CNC(=O)c4cc5ccncc5o4)cc3)ccc21` [N-{[4-(1-methyl-1H-indazole-5-sulfonyl)phenyl]methyl}furo[2,3-c]pyridine-2-carboxamide]: the IC50 in assay [1] (NAMPT enzymatic assay) was 3.3 nM; in assay [2] (SRB), 3.5 nM.

With `Cn1ncc2cc(S(=O)(=O)c3ccc(CNC(=O)c4ccc5nccn5c4)cc3)ccc21` [N-{[4-(1-methyl-1H-indazole-5-sulfonyl)phenyl]methyl}imidazo[1,2-a]pyridine-6-carboxamide], the IC50 in assay [1] (NAMPT enzymatic assay) was 4 nM; in assay [2] (SRB) it was 1.6 nM.

On to `Cn1ncc2cc(S(=O)(=O)c3ccc(CNC(=O)c4cnc5nccn5c4)cc3)ccc21` [N-{[4-(1-methyl-1H-indazole-5-sulfonyl)phenyl]methyl}imidazo[1,2-a]pyrimidine-6-carboxamide], for which the IC50 in assay [1] (NAMPT enzymatic assay) was 1.7 nM; in assay [2] (SRB) it was 4.9 nM.

Consider `Cn1ncc2cc(S(=O)(=O)c3ccc(CNC(=O)c4cc5ccncc5s4)cc3)ccc21` [N-{[4-(1-methyl-1H-indazole-5-sulfonyl)phenyl]methyl}thieno[2,3-c]pyridine-2-carboxamide], for which the values for the IC50 in assay [1] (NAMPT enzymatic assay) and in assay [2] (SRB) were 1.5 nM and 1.6 nM, respectively.

Regarding `Cn1ncc2ccc(S(=O)(=O)c3ccc(CNC(=O)c4cnc5[nH]ncc5c4)cc3)cc21` [N-{[4-(1-methyl-1H-indazole-6-sulfonyl)phenyl]methyl}-1H-pyrazolo[3,4-b]pyridine-5-carboxamide], the values for the IC50 in assay [1] (NAMPT enzymatic assay) and in assay [2] (SRB) were 4 nM and 3 nM, respectively.

Consider `Cn1ncc2ccc(S(=O)(=O)c3ccc(CNC(=O)c4cc5cnccc5[nH]4)cc3)cc21` [N-{[4-(1-methyl-1H-indazole-6-sulfonyl)phenyl]methyl}-1H-pyrrolo[3,2-c]pyridine-2-carboxamide], for which the IC50 in assay [1] (NAMPT enzymatic assay) came to 5.1 nM; in assay [2] (SRB), 3.3 nM.

With `Cn1ncc2ccc(S(=O)(=O)c3ccc(CNC(=O)c4cc5ccncc5o4)cc3)cc21` [N-{[4-(1-methyl-1H-indazole-6-sulfonyl)phenyl]methyl}furo[2,3-c]pyridine-2-carboxamide], the half-inhibitory concentration (IC50) in assay [1] (NAMPT enzymatic assay) came out at 4.7 nM; in assay [2] (SRB) it was 3.4 nM.

Regarding `Cn1ncc2ccc(S(=O)(=O)c3ccc(CNC(=O)c4ccc5nccn5c4)cc3)cc21` [N-{[4-(1-methyl-1H-indazole-6-sulfonyl)phenyl]methyl}imidazo[1,2-a]pyridine-6-carboxamide], the IC50 turned out to be 5 nM in assay [1] (NAMPT enzymatic assay) and 3.9 nM in assay [2] (SRB).
